Data set [1] has as its system BpXylA (xylose isomerase). As to the kind of experiment: Effect of metal ions on the thermal stability of BpXylA. Format: biochemical, Bacteroides plebeius. The following applies: 1 mM metal ion; for Relative activity of BpXylA over time with metal ion: 50° C. (Mg^2+: 50° C. or higher), up to 90 minutes. Here is the method: To investigate this, the culture was performed with each metal ion corresponding to a concentration of 1 mM together with the enzymes under various temperature conditions. As a result, as shown in [FIG. 4], higher thermal stability was found when the culture was performed with metal ions than when it was performed without metal ions. […] [(b) of FIG. 4 and (c) of FIG. 4].

Data set [2] concerns BpXylA (xylose isomerase). Nature of the data set: Effect of metal ions on the activity of BpXylA. The following applies: pre-incubation 4° C. 20 minutes; control: no metal ions added. Format: biochemical, Bacteroides plebeius. Here is the method: (§1) To investigate the optimal reaction conditions for BpXylA, the effects of optimal reaction temperature, pH, and metal ions were examined. The standard reaction conditions for BpXylA were set to a reaction with 1.09 U/ml BpXylA in 50 mM sodium phosphate (pH 7.0) buffer containing 10 mM D-xylose and 1 mM Mg^2+ at 50° C. for 10 minutes. The optimal reaction conditions for BpXylA described below were all determined by experiments under the standard reaction conditions.
(§2) First, in order to determine the optimal temperature conditions for BpXylA, the reaction was performed under standard reaction conditions at various temperature conditions. […] In order to determine the optimal pH of BpXylA, the reaction was performed while varying the pH using various buffer solutions.

Data set [3] has as its target EcPpk (polyphosphate kinase) (Escherichia coli, UniProt P0A7B1). The following applies: pre-incubation 4° C. 20 minutes; control: no metal ions added. Here is the method: As a result, the highest activity was found at 50° C., as shown in [(a) of FIG. 10]. […] As a result, the highest activity was found in a sodium phosphate buffer (pH 7.0), as shown in [(b) of FIG. 10]. […] The decrease in enzyme activity was calculated by calculating the decrease in relative activity due to heat treatment, using the activity of the enzyme that was not allowed to stand as a control. […] [(d) of FIG. 10].

The target in data set [4] is T1, EcAraB (L-ribulokinase) (Escherichia coli, UniProt P08204). As to the kind of experiment: Effect of metal ions on the activity of EcAraB. Type of data set: biochemical. More on the design: His tag (inferred: pET21a, NotI reverse primer without stop codon, HisTrap purification) (C); T7 tag and vector leader of pET21a (own knowledge: in-frame insertion at SacI keeps the vector's N-terminal leader) (N); made in house; host or cells: E. coli BL21 (DE3). The following applies: pre-incubation 4° C. 20 minutes; control: no metal ions added. As for the experimental part: To determine the optimal reaction conditions for EcAraB, the optimal reaction temperature, pH, metal ion effects, and thermal stability were examined. […] The amount (mg) of EcAraB that produces 1 μmol of D-ribulose-5-phosphate per minute was defined as one unit.
As a result, as shown in [(a) of FIG. 9], the highest activity was found at 50° C. In order to determine the optimal pH conditions for EcAraB, the reaction was performed while varying the pH using various buffer solutions. […] [(d) of FIG. 9].

Data set [5] relates to BpRpiB (D-ribose-5-phosphate isomerase). As to the kind of experiment: Effect of metal ions on the activity of BpRpiB. Type of data set: biochemical, Bacteroides plebeius. The following applies: pre-incubation 4° C. 20 minutes; control: no metal ions added. Here is the method: (§3) To determine the optimal reaction conditions for BpRpiB, the optimal reaction temperature, pH, metal ion effects, and thermal stability were examined. […] The amount (mg) of BpRpiB that produces 1 μmol of D-ribulose per minute was defined as one unit.
(§4) First, in order to determine the optimal temperature conditions for BpRpiB, the reaction was performed under standard reaction conditions at various temperature conditions. […] In order to investigate the optimal pH for the activity of BpRpiB, the reaction was performed by changing the pH using various buffer solutions. […] [(d) of FIG. 5].

For data set [6], the system named is BpXylA (xylose isomerase). As to the kind of experiment: Substrate specificity of BpXylA. Type of data set: biochemical, Bacteroides plebeius. The following applies: substrate 2 mM, standard reaction conditions (50 mM sodium phosphate pH 7.0, 1 mM Mg^2+, 50° C., 10 minutes); based on the activity for D-xylose. Here is the method:
as §1
In order to determine whether BpXylA used in the present invention is a suitable enzyme for producing D-ribose from D-xylose, the substrate specificity of BpXylA for various aldo- and keto-sugars was examined [Table 1]. The experiment was conducted using various aldo- and keto-sugars as substrates at a concentration of 2 mM under the standard reaction conditions, and the relative activity against other substrates was shown based on the activity for D-xylose. […] Therefore, BpXylA is sufficiently applicable for producing D-ribose from D-xylose in the present invention.

Data set [7] relates to BpRpiB (D-ribose-5-phosphate isomerase). Nature of the data set: Substrate specificity of BpRpiB. Type of data set: biochemical, Bacteroides plebeius. Conditions: substrate 2 mM, standard reaction conditions (50° C., 10 minutes).
Description: as §3
BpRpiB used in the present invention is known to be an enzyme that converts the substrate D-ribulose-5-phosphate, which is originally a phosphorylated sugar, into D-ribose-5-phosphate. Therefore, in the present invention, in order to confirm the activity of BpRpiB for D-ribose and D-ribulose as well as D-ribulose-5-phosphate and D-ribose-5-phosphate, which are the original substrates of BpRpiB, the substrate specificity of BpRpiB for various aldo- and keto-sugars was examined [Table 2]. The experiment was performed using various aldo- and keto-sugars as substrates at a concentration of 2 mM under standard reaction conditions, and the relative activity against other substrates was expressed based on the activity against D-xylose. […] Therefore, in the present invention, in order to produce D-ribose from D-xylose, BpRpiB is sufficiently applicable as an enzyme that converts D-ribulose into D-ribose, which is the final reaction step of the multi-enzyme process.

Data set [8] deals with T1, EcAraB (L-ribulokinase). Conditions: previous study; cited from earlier work.
Data set [9] has as its system BpXylA (xylose isomerase). As to the kind of experiment: Optimal reaction temperature and pH of BpXylA. Format: biochemical, Bacteroides plebeius. Here is the method: as §1, §2
For data set [10], the system named is BpXylA (xylose isomerase). Nature of the data set: Thermal stability of BpXylA. Type of data set: physicochemical, Bacteroides plebeius.
Data set [11] concerns BpRpiB (D-ribose-5-phosphate isomerase). As to the kind of experiment: Thermal stability of BpRpiB. Type of data set: physicochemical, Bacteroides plebeius. Here is the method:
as §3, §4

For data set [12], the target named is T2, AtDpe (ketose 3-epimerase) (Agrobacterium fabrum, UniProt A9CH28).
T2 sequence (A9CH28 whole entry, looked up): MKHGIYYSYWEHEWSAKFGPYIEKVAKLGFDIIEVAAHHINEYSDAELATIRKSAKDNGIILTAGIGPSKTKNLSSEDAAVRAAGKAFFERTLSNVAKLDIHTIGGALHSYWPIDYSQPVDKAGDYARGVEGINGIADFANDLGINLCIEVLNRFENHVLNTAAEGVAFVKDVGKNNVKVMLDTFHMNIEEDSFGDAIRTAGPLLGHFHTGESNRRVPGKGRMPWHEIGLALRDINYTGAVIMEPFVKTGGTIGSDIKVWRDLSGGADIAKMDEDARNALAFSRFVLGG
Conditions: 50° C. compared to 45° C.; previous study; cited from earlier work.

`[Co+2]` [Co^2+]: in data set [1], the “Relative activity of BpXylA over time with metal ion” value is on record as “stably maintained”. Further, the “Effect of metal ion on enzyme activity” value in [2] was “significantly increased”. Moreover, the “Relative activity with metal ion added” value was found to be 176.14±24.10% in [3] and 435.51±110.20% in [4].
Take `[Cu+2]` [Cu^2+]: the “Effect of metal ion on enzyme activity” value in [5] is recorded as “significantly inhibited”.
In the case of `O=C[C@@H](O)[C@H](O)[C@H](O)CO` [D-Arabinose], the “Relative activity (%)” value in data set [6] and in [7] was “Not detected” each time.
On to `O=C(CO)[C@@H](O)[C@H](O)[C@H](O)CO` [D-Fructose], for which the “Relative activity (%)” value in [6] and in data set [7] was “Not detected” throughout.
On to `O=C[C@H](O)[C@@H](O)[C@H](O)[C@H](O)CO` [D-Glucose], for which the “Relative activity (%)” value in data set [6] and in data set [7] was “Not detected” in each case.
For `O=C[C@@H](O)[C@@H](O)[C@H](O)[C@H](O)CO` [D-Mannose], the “Relative activity (%)” value in [6] and in [7] was “Not detected” in each case.
For `O=C[C@H](O)[C@H](O)[C@H](O)COP(=O)(O)O` [D-Ribose-5-phosphate], in data set [7], the “Relative activity (%)” value is reported as 933.9 ± 11.7%.
`O=C[C@H](O)[C@H](O)[C@H](O)CO` [D-Ribose]: the “Relative activity (%)” value in [6] was found to be 33.2 ± 1.1%; in data set [7], 79.1 ± 0.4%.
Regarding `O=C(CO)[C@H](O)[C@H](O)COP(=O)(O)O` [D-Ribulose-5-phosphate], in data set [7], the “Relative activity (%)” value is 924.4 ± 33.7%.
With `O=C(CO)[C@H](O)[C@H](O)CO` [D-Ribulose], the “Relative activity (%)” value in data set [6] is 13.9 ± 13.8%; in data set [7], 100 ± 4.8%.
The corresponding values for `O=C(CO)[C@@H](O)[C@@H](O)[C@H](O)CO` [D-Tagatose] are “Not detected” and “Not detected”.
In the same order, the values of `O=C[C@H](O)[C@@H](O)[C@H](O)CO` [D-Xylose] are 100 ± 2.2% and “Not detected”.
For the molecule `O=C(CO)[C@@H](O)[C@H](O)CO` [D-Xylulose], the “Relative activity (%)” value is recorded as 156.5 ± 2.2% in data set [6] and “Not detected” in data set [7]. In addition, the “Activity relative to the activity against D-ribulose” value in [8] is on record as 2.44%.
With `O=C[C@H](O)[C@@H](O)[C@@H](O)CO` [L-Arabinose], the “Relative activity (%)” value in [6] and in data set [7] was “Not detected” each time.
As for `O=C(CO)[C@@H](O)[C@H](O)[C@@H](O)CO` [L-Sorbose], the “Relative activity (%)” value in data set [6] and in [7] was “Not detected” in each case.
Consider `[Mg+2]` [Mg^2+], for which the “Relative activity of BpXylA over time with metal ion” value in data set [1] is on record as “decreased over time”. Moreover, the “Thermal stability of BpXylA with metal ion” value in data set [1] (versus without metal ions) is listed as “thermal stability increased”. Besides, in [2], the “Effect of metal ion on enzyme activity” value was “significantly increased”. Also, the “Relative activity with metal ion added” value in data set [2] stood at 876.98±35.30%; in data set [3] it was 202.12±7.46%; in [4], 614.62±42.14%.
In the case of `[Mn+2]` [Mn^2+], the “Relative activity of BpXylA over time with metal ion” value in [1] is on record as “stably maintained”. Moreover, the “Relative activity of BpXylA with metal ion” value in [1] (60° C.) is on record as “stable”. In [2], the “Effect of metal ion on enzyme activity” value is listed as “significantly increased”. Besides, the entries for the “Relative activity with metal ion added” value in data set [3] and in [4] were 161.48±5.53% and 286.47±21.62%, respectively.
As to `[Zn+2]` [Zn^2+], the “Effect of metal ion on enzyme activity” value in data set [5] was “significantly inhibited”.
On to “BpXylA: xylose isomerase derived from Bacteroides plebeius, SEQ ID NO: 1”, for which the “Optimal pH” value in data set [9] (sodium phosphate buffer) was 7.0. Further, the “Optimal temperature for enzyme activity” value in data set [9] (standard reaction conditions, various temperatures) turned out to be 50 °C. For the same molecule, in data set [10] (40° C., up to 90 minutes), the “Enzyme activity after heat treatment” value is recorded as “did not significantly decrease”. Also, the “Relative activity after heat treatment” value in [10] (50° C. for 15 minutes, control: enzyme not allowed to stand) is recorded as “about 29.29±1.43%”.

B1: BpRpiB: D-ribose-5-phosphate isomerase derived from Bacteroides plebeius, SEQ ID NO: 5 (protein)
chain: MKTIGLASDHAGFELKQYVKKWLEAKGWEYKDFGTYTTDSCDYPDFAHPLALAVENGECYPGIAICGSGEGIGITLNKHQGIRAALCWIPEIAHLARQHNNANVLVMPGRFIDEAMADKIMTEFFTTDFEGGRHQARIDKIPVR
modifications: BpRpiB
As for B1, in [11] (70° C.), the “Activity after heat treatment” value is recorded as “rapidly decreased”. In addition, the “Overall activity after heat treatment” value in [11] (up to 60° C.) is “stable”.

B2: AtDpe: ketose 3-epimerase derived from Agarobacterium tumefaciens, SEQ ID NO: 3 (protein)
chain: MKHGIYYSYWEHEWSAKFGPYIEKVAKLGFDIIEVAAHHINEYSDAELATIRKSAKDNGIILTAGIGPSKTKNLSSEDAAVRAAGKAFFERTLSNVAKLDIHTIGGALHSYWPIDYSQPVDKAGDYARGVEGINGIADFANDLGINLCIEVLNRFENHVLNTAAEGVAFVKDVGKNNVKVMLDTFHMNIEEDSFGDAIRTAGPLLGHFHTGESNRRVPGKGRMPWHEIGLALRDINYTGAVIMEPFVKTGGTIGSDIKVWRDLSGGADIAKMDEDARNALAFSRFVLGG
modifications: AtDpe
For the molecule B2, in data set [12], the Thermal stability entry is recorded as “decreased rapidly”.

Values taken from patent US20260275395A1, “ENZYMATIC CONVERSION OF D-XYLOSE INTO D-RIBOSE AND D-RIBULOSE-5-PHOSPHATE” (priority 2022, published 2026).
